Measurements: US20020137929A1, “1 - (3-heterocyclylphenyl) isothiourea, -isourea, -guanidine and -amidine herbicidal agents” (Intellectual Property Department, BASF Aktiengesellschaft, priority 1998, published 2002)

Tests used:
[1] = tested on: SAGPY (Arrowhead (Pygmaea)); assay: Preemergence weed control under flooded paddy conditions; type: in vivo, Sagittaria pygmaea; conditions: rated 3-4 weeks after treatment
Procedure, shortened: (§1)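 Visual injury scored 0-9 against control three to four weeks post-treatment, greenhouse-grown. Application: acetone/water (50/50) solutions dosed directly into flood water (1.5-3 cm over silt loam, planted top 0.5 cm), roughly 0.0313 to 0.500 kg/ha active ingredient.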

CASOB (Sicklepod) [2] = assay: Postemergence herbicidal evaluation; type: in vivo, Cassia obtusifolia; conditions: postemergence
Procedure, shortened: (§2)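 Two-week-old seedlings sprayed with compound in 50/50 acetone/water plus 0.5% TWEEN 20, at about 0.0156 to 0.500 kg/ha, nozzle at 40 psi. Kept in greenhouse; rated visually 4-5 weeks after treatment on a 0-9 scale versus control, repeat tests averaged.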

[3] = tested on: GLXMAW (Soybean, Williams); assay: Postemergence herbicidal evaluation; type: in vivo, Glycine max, (L.) Merr. cv Williams; conditions: postemergence
Procedure, shortened: as §2

AMBEL (Ragweed, Common) = assay: Postemergence herbicidal evaluation; type: in vivo, Ambrosia artemisifolia; conditions: postemergence
Procedure, shortened: as §2

GALAP (Galium) [4] = assay: Preemergence herbicidal evaluation; type: in vivo, Galium aparine; conditions: rated 4-5 weeks after treatment
Procedure, shortened: (§3)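 Test compound, dissolved in aqueous acetone, was sprayed over planted soil cups at an equivalent of about 0.0156 to 0.500 kg/ha; seeds had been mixed with potting soil. Greenhouse growth followed, with visual 0-9 scoring of injury at four to five weeks.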

ECHCG (Barnyardgrass) = assay: Postemergence herbicidal evaluation; type: in vivo, Echinochloa crus-galli; conditions: postemergence
Procedure, shortened: as §2

CASOB (Sicklepod) [5] = assay: Preemergence herbicidal evaluation; type: in vivo, Cassia obtusifolia; conditions: rated 4-5 weeks after treatment
Procedure, shortened: as §3

CYPSE (Flatsedge) [6] = assay: Preemergence weed control under flooded paddy conditions; type: in vivo, Cyperus serotinus; conditions: rated 3-4 weeks after treatment
Procedure, shortened: as §1

SETVI (Foxtail, Green) = assay: Postemergence herbicidal evaluation; type: in vivo, Setaria viridis; conditions: postemergence
Procedure, shortened: as §2

GALAP (Galium) [7] = assay: Postemergence herbicidal evaluation; type: in vivo, Galium aparine; conditions: postemergence
Procedure, shortened: as §2

CYPIR (Rice Flatsedge) = assay: Preemergence weed control under flooded paddy conditions; type: in vivo, Cyperus iria; conditions: rated 3-4 weeks after treatment
Procedure, shortened: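 Herbicidal effect is scored visually on a 0-9 scale against an untreated control, three to four weeks after compounds are pipetted into the flood water (1.5 to 3 cm deep) over seeds planted in silt loam at 0.5 cm depth. Rates: about 0.0313 to 0.500 kg/ha.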

[8] = tested on: CHEAL (Lambsquarters, Common); assay: Postemergence herbicidal evaluation; type: in vivo, Chenopodium album; conditions: postemergence
Procedure, shortened: as §2

CYPSE (Flatsedge) [9] = assay: Postemergence weed control under flooded paddy conditions; type: in vivo, Cyperus serotinus; conditions: postemergence weeds, 3-4 weeks after treatment
Procedure, shortened: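 Injury ratings (0–9 scale covering stand, vigor, malformation, size, chlorosis and overall appearance versus control) were made three to four weeks after treatment. Test material, about 0.0313 to 0.500 kg/ha a.i. in 50/50 v/v aqueous/acetone, was added to flood water 1.5 to 3 cm deep over 3 to 5 cm weeds and 1.5 to 2.5 leaf rice.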

ZEAMX (Corn, Field) = assay: Preemergence herbicidal evaluation; type: in vivo, Zea mays; conditions: rated 4-5 weeks after treatment
Procedure, shortened: as §3

ORYSAT (Rice, Tebonnet) = assay: Postemergence herbicidal evaluation; type: in vivo, Oryza sativa, (L.) Tebonnet; conditions: postemergence
Procedure, shortened: as §2

CCOC(=O)/C=C1/S/C(=N/c2cc(-n3c(=O)cc(C(F)(F)F)n(C)c3=O)c(F)cc2Cl)N(CC(=O)OCC)C1=O [Compound 14]
Herbicidal rating SAGPY ([1]; 0.0313 kg/ha): 0.0
Herbicidal rating SAGPY ([1]; 0.0625 kg/ha): 0.0
Herbicidal rating SAGPY ([1]; 0.1250 kg/ha): 0.0
Herbicidal rating SAGPY ([1]; 0.2500 kg/ha): 0.0
CASOB herbicidal rating (CASOB (Sicklepod) [2]; rate 0.0156 kg/ha): 0.0
CASOB herbicidal rating (CASOB (Sicklepod) [2]; rate 0.0313 kg/ha): 2.0
CASOB herbicidal rating (CASOB (Sicklepod) [2]; rate 0.0625 kg/ha): 2.0
CASOB herbicidal rating (CASOB (Sicklepod) [2]; rate 0.1250 kg/ha): 9.0
GLXMAW herbicidal rating ([3]; rate 0.0156 kg/ha): 6.0
GLXMAW herbicidal rating ([3]; rate 0.0313 kg/ha): 8.0
GLXMAW herbicidal rating ([3]; rate 0.0625 kg/ha): 9.0
GLXMAW herbicidal rating ([3]; rate 0.1250 kg/ha): 8.5
AMBEL herbicidal rating (AMBEL (Ragweed, Common); rate 0.0156 kg/ha): 9.0
AMBEL herbicidal rating (AMBEL (Ragweed, Common); rate 0.0313 kg/ha): 9.0
AMBEL herbicidal rating (AMBEL (Ragweed, Common); rate 0.0625 kg/ha): 9.0
AMBEL herbicidal rating (AMBEL (Ragweed, Common); rate 0.1250 kg/ha): 9.0
GALAP preemergence herbicidal rating (GALAP (Galium) [4]; rate 0.0313 kg/ha): 0.0
GALAP preemergence herbicidal rating (GALAP (Galium) [4]; rate 0.0625 kg/ha): 0.0
GALAP preemergence herbicidal rating (GALAP (Galium) [4]; rate 0.1250 kg/ha): 9.0
GALAP preemergence herbicidal rating (GALAP (Galium) [4]; rate 0.2500 kg/ha): 9.0
ECHCG herbicidal rating (ECHCG (Barnyardgrass); rate 0.0156 kg/ha): 9.0
ECHCG herbicidal rating (ECHCG (Barnyardgrass); rate 0.0313 kg/ha): 9.0
ECHCG herbicidal rating (ECHCG (Barnyardgrass); rate 0.0625 kg/ha): 9.0
ECHCG herbicidal rating (ECHCG (Barnyardgrass); rate 0.1250 kg/ha): 9.0
CASOB preemergence herbicidal rating (CASOB (Sicklepod) [5]; rate 0.0313 kg/ha): 0.0
CASOB preemergence herbicidal rating (CASOB (Sicklepod) [5]; rate 0.0625 kg/ha): 1.0
CASOB preemergence herbicidal rating (CASOB (Sicklepod) [5]; rate 0.1250 kg/ha): 1.5
CASOB preemergence herbicidal rating (CASOB (Sicklepod) [5]; rate 0.2500 kg/ha): 2.0
CASOB preemergence herbicidal rating (CASOB (Sicklepod) [5]; rate 0.5000 kg/ha): 5.0
Herbicidal rating CYPSE (CYPSE (Flatsedge) [6]; 0.0313 kg/ha): 0.0
Herbicidal rating CYPSE (CYPSE (Flatsedge) [6]; 0.0625 kg/ha): 0.0
Herbicidal rating CYPSE (CYPSE (Flatsedge) [6]; 0.1250 kg/ha): 3.0
Herbicidal rating CYPSE (CYPSE (Flatsedge) [6]; 0.2500 kg/ha): 0.0
SETVI herbicidal rating (SETVI (Foxtail, Green); rate 0.0156 kg/ha): 7.0
SETVI herbicidal rating (SETVI (Foxtail, Green); rate 0.0313 kg/ha): 8.0
SETVI herbicidal rating (SETVI (Foxtail, Green); rate 0.0625 kg/ha): 9.0
SETVI herbicidal rating (SETVI (Foxtail, Green); rate 0.1250 kg/ha): 9.0
GALAP herbicidal rating (GALAP (Galium) [7]; rate 0.0156 kg/ha): 2.0
GALAP herbicidal rating (GALAP (Galium) [7]; rate 0.0313 kg/ha): 4.0
GALAP herbicidal rating (GALAP (Galium) [7]; rate 0.0625 kg/ha): 5.0
GALAP herbicidal rating (GALAP (Galium) [7]; rate 0.1250 kg/ha): 6.0
Herbicidal rating CYPIR (CYPIR (Rice Flatsedge); 0.0313 kg/ha): 2.0
Herbicidal rating CYPIR (CYPIR (Rice Flatsedge); 0.0625 kg/ha): 2.5
Herbicidal rating CYPIR (CYPIR (Rice Flatsedge); 0.1250 kg/ha): 4.5
Herbicidal rating CYPIR (CYPIR (Rice Flatsedge); 0.2500 kg/ha): 0.0
CHEAL herbicidal rating ([8]; rate 0.0156 kg/ha): 9.0
CHEAL herbicidal rating ([8]; rate 0.0313 kg/ha): 9.0
CHEAL herbicidal rating ([8]; rate 0.0625 kg/ha): 9.0
CHEAL herbicidal rating ([8]; rate 0.1250 kg/ha): 9.0
Herbicidal rating CYPSE (CYPSE (Flatsedge) [9]; rate 0.0313 kg/ha): 0.0
Herbicidal rating CYPSE (CYPSE (Flatsedge) [9]; rate 0.0625 kg/ha): 0.0
Herbicidal rating CYPSE (CYPSE (Flatsedge) [9]; rate 0.1250 kg/ha): 1.5
Herbicidal rating CYPSE (CYPSE (Flatsedge) [9]; rate 0.2500 kg/ha): 0.0
ZEAMX preemergence herbicidal rating (ZEAMX (Corn, Field); rate 0.0313 kg/ha): 0.0
ZEAMX preemergence herbicidal rating (ZEAMX (Corn, Field); rate 0.0625 kg/ha): 0.0
ZEAMX preemergence herbicidal rating (ZEAMX (Corn, Field); rate 0.1250 kg/ha): 1.5
ZEAMX preemergence herbicidal rating (ZEAMX (Corn, Field); rate 0.2500 kg/ha): 2.0
ZEAMX preemergence herbicidal rating (ZEAMX (Corn, Field); rate 0.5000 kg/ha): 3.0
ORYSAT herbicidal rating (ORYSAT (Rice, Tebonnet); rate 0.0156 kg/ha): 3.5
ORYSAT herbicidal rating (ORYSAT (Rice, Tebonnet); rate 0.0313 kg/ha): 5.5
ORYSAT herbicidal rating (ORYSAT (Rice, Tebonnet); rate 0.0625 kg/ha): 6.0
ORYSAT herbicidal rating (ORYSAT (Rice, Tebonnet); rate 0.1250 kg/ha): 8.5
